Reference: patent US20230414583A1, “LYSERGIC ACID DERIVATIVES WITH MODIFIED LSD-LIKE ACTION” (Mind Medicine, Inc., priority 2022, published 2023)

Columns and labels:
[1] = 5R,8S epimer; cited from earlier work
[2] = Microsomal assays: stability in pooled human liver microsomes, LC-MS/MS; type: in vitro ADME; conditions: 10 nM; for microsomal metabolism compared with LSD: incubations over 4 hours
Text: Given its fast metabolism, it is likely not active orally but is a candidate for intravenous administration in particular as an infusion and expected to then produce short-lasting or also maintained effects that can rapidly be terminated upon stopping the infusion. […] However, it is important to note that in addition to the metabolic profile, other factors such as 5-HT2A receptor activity are important to consider when choosing promising drug candidates for therapeutic applications. In addition, in vivo experiments are necessary further assessing the clinical pharmacokinetics of these substances.
Microsomal assays: The objective of this experiment was the investigation of the microsomal stability of 10 novel lysergamides (FIGS. 13A-13J) in order to make predictions about whether any of the derivatives may be clinically faster metabolized than lysergic acid diethylamide (LSD). The test substances were incubated with human liver microsomes for 4 hours and the metabolic degradation was then measured by liquid chromatography-tandem mass spectrometry (LC-MS/MS). In brief, LSD and the derivatives (10 nM) were incubated in the presence of pooled human liver microsomes for 4 hours. The microsomal reaction mixture contained 464.5 μL phosphate-buffered saline, 25 μL nicotinamide adenine dinucleotide phosphate (NADPH) solution A (1:20 dilution, #451220, lot: 0344003; Corning Life Sciences B.V) and 5 μL Solution B (1:100 dilution, #451200, lot: 0342002; Corning Life Sciences B.V), 5 μL liver microsomes (150 donors, 20 mg/mL, #452117, lot: 38296; Corning Life Sciences B.V., Amsterdam, The Netherlands), and 0.5 μL test drugs (10 μM). Samples (50 μL) were taken 2 minutes prior to microsomal incubation (t0) and 0.5, 1, 2, 3, and 4 hours after initiation of the microsomal reaction. A total of five assays were performed per substance. The amount of the test substances (peak area) exposed to human liver microsomes for 4 hours was compared relative to a concentration of 10 nM (t0, 100% peak area). Linear regression slopes were plotted to compare the degradation of the derivatives and LSD. None of the TRALA derivatives were metabolized to LSD (data not shown).

LSD-trained rats = conditions: even at 20× of the full active dose of LSD; cited from earlier work
5-HT2A = conditions: cited from earlier work
[3] = humans; psilocin: unconjugated, average; cited from earlier work
[4] = Chemical stability under basic and acidic conditions (HPLC MS); type: physicochemical
Protocol: General preparation and equipment information: NMR was performed on a Bruker NMR (^1H: 300 MHz and ^19F: 282 MHz) at ambient temperature. Reaction controls were performed by silica gel TLC (F254; UV detection) and HPLC UV & MS (Agilent 1100, UV at 210 nm and 313 nm, Waters SQD, ESI+ mode) under basic as well as acidic conditions (solvents: A: either 0.02% NH4OH in water or 0.05% TFA in water, B: acetonitrile, gradients from 5% to 95% B, reversed phase C18 HPLC column). All reactions, workups, drying steps, and storing were performed under exclusion of daylight and of electric light such as neon lighting or light bulbs containing wavelengths of the blue and/or UV spectrum. Working was performed in either light-excluding lab ware or under orange to red light (UV free LED). This helps to prevent decompositions of the compounds. Further on, reactions und some purifications can be performed under protecting gas such as Nitrogen or Argon to further protect the compounds from decompositions. Purifications were performed by using silica gel column chromatography and organic solvents such as mixtures of an alcohol (MeOH or EtOH) and dichloromethane, and in some cases, 0.1% to 1% of NH4OH 25% or 0.1% to 1% NEt3 was added. In a similar way, preparative TLC (silica gel) using the aforementioned solvents was applied as well. Working safety: a suitable personal protecting ware common to lab works and fume hoods with a movable glass window were used. Possible contaminations on e.g., gloves or surfaces can quickly be detected by having a long-wave UV lamp (e.g., 366 nm) at hands, preventing further distribution of active materials. Typically, compounds bearing an intact lysergic acid amide substructure, show a strong blueish fluorescence even in trace amounts. Quick deactivation of the potential central effects of these compounds can be performed by using, e.g., a mixture of bleach and diluted alcohol.
9,10-Didehydro-N-ethenyl-N-ethyl-6-methylergoline-8R-carboxamide (TRALA-12), 21. […]

In the case of `CCN(CC)C(=O)[C@H]1C=C2c3cccc4[nH]cc(c34)C[C@H]2N(C)C1` [iso-LSD], the psychoactivity in humans [1] is given as “inactive up to several milligrams”.
With `C#CCN(CC)C(=O)[C@@H]1C=C2c3cccc4[nH]cc(c34)C[C@H]2N(CC(=C)F)C1` [Compound 16b, 9,10-Didehydro-N-ethyl-N-propyn-3-yl-6-(2-fluoro-1-propen-3-yl)ergoline-8R-carboxamide] the “microsomal metabolism compared with LSD” value [2] was “significantly faster metabolized than LSD”.
In the case of `C=C(F)CN1C[C@H](C(=O)N(CC)CC)C=C2c3cccc4[nH]cc(c34)C[C@H]21` [Compound 12c, 9,10-Didehydro-N,N-diethyl-6-(2-fluoro-1-propen-3-yl)ergoline-8R-carboxamide], the “microsomal metabolism compared with LSD” value [2] is reported as “significantly faster metabolized than LSD”.
For `CCN(CC)C(=O)[C@@H]1C=C2c3cccc4[nH]cc(c34)C[C@H]2NC1` [6-Nor-LSD, 9,10-Didehydro-N,N-diethylergoline-8R-carboxamide], the “ability to substitute in LSD-trained rats” value (LSD-trained rats) is listed as “loss of its 5-HT2A binding affinity (factor 30) and the ability to substitute in LSD-trained rats”, the “binding to 5-HT2A in more recent binding assays” value (5-HT2A; Luethi et al., 2019) is listed as “high-potency binding to 5-HT2A” and the “loss of 5-HT2A binding affinity on N6-demethylation of LSD” value (5-HT2A; relative to LSD (Hoffmann, 1987)) is listed as 30 factor.
In the case of `CCN(CC)C(=O)[C@@H]1C=C2c3cccc4[nH]cc(c34)C[C@H]2N(C)C1` [LSD, 9,10-Didehydro-N,N-diethyl-6-methylergoline-8R-carboxamide], the plasma half-life [3] is given as “approximately 4 hours”.
For `C#CCN(CC)C(=O)[C@@H]1C=C2c3cccc4[nH]cc(c34)C[C@H]2N(CCF)C1` [Compound 16a, 9,10-Didehydro-N-ethyl-N-propyn-3-yl-6-(2-fluoroethyl)ergoline-8R-carboxamide], the “microsomal metabolism compared with LSD” value [2] was “significantly faster metabolized than LSD”.
With `C=CN(CC)C(=O)[C@@H]1C=C2c3cccc4[nH]cc(c34)C[C@H]2N(C)C1` [Compound 2l, 9,10-Didehydro-N-ethenyl-N-ethyl-6-methylergoline-8R-carboxamide] the “stability against basic or acidic HPLC MS conditions” value ([4]; 0.02% NH4OH in water or 0.05% TFA in water / acetonitrile) was “stability against these conditions”, the “time after which the majority of substance was metabolized” value [2] was 30 min and the “microsomal metabolism compared with LSD” value [2] was “significantly faster metabolized than LSD”.
For `CCN(C=C(F)F)C(=O)[C@@H]1C=C2c3cccc4[nH]cc(c34)C[C@H]2N(C)C1` [Compound 2m, 9,10-Didehydro-N-(2,2-difluoroethenyl)-N-ethyl-6-methylergoline-8R-carboxamide], the “chemical stability, basic conditions” value ([4]; hydrolyzed sample stored at ambient temperature overnight) was “remained intact” and the “chemical stability, acidic conditions” value ([4]; hydrolyzed sample with excess tartaric acid, stored for 24h) was “the same product distribution as after initial hydrolysis of the reaction”.
